Patent publication US7795178B2, “Fungicidal active combinations spiroxamine, prothioconazole and tebuconazole” (Bayer CropScience AG, priority 2003, dated 2010)

Key:
Format in all cases: in vivo
[1] = test system: Erysiphe graminis f.sp.tritici; test: Erysiphe test (wheat)/protective; conditions: protective, application rate 125 g/ha, evaluation 6 days after inoculation
Procedure: Erysiphe Test (Wheat)/Protective To produce a suitable preparation of active compound, a commercial formulation of active compound or active compound combination is diluted with water to the desired concentration. To test for protective activity, young plants are sprayed with the active compound preparation at the stated application rate. After the spray coating has dried on, the plants are dusted with spores of Erysiphe graminis f.sp.tritici. The plants are placed in a greenhouse at a temperature of about 20° C. and a relative atmospheric humidity of about 80% to promote the development of mildew pustules. Evaluation is carried out 6 days after the inoculation. 0% means an efficacy which corresponds to that of the control, whereas an efficacy of 100% means that no infection is observed.

Leptosphaeria nodorum = Leptosphaeria nodorum test (wheat)/curative; conditions: curative, application rate 500 g/ha, evaluation 12 days after inoculation
Procedure: Leptosphaeria nodorum Test (Wheat)/Curative To produce a suitable preparation of active compound, a commercial formulation of active compound or active compound combination is diluted with water to the desired concentration. To test for curative activity, young plants are sprayed with a conidia suspension of Leptosphaeria nodorum. The plants remain in an incubation cabin at 20° C. and 100% relative atmospheric humidity for 48 hours and are then sprayed with the active compound preparation at the stated application rate. The plants are placed in a greenhouse at a temperature of about 15° C. and a relative atmospheric humidity of about 80%. Evaluation is carried out 12 days after the inoculation. 0% means an efficacy which corresponds to that of the control, whereas an efficacy of 100% means that no infection is observed.

[2] = test system: Fusarium nivale var. majus; test: Fusarium nivale (var. majus) test (wheat)/curative; conditions: curative, evaluation 11 days after inoculation
Procedure: Fusarium nivale (var. majus) Test (Wheat)/Curative To produce a suitable preparation of active compound, a commercial formulation of active compound or active compound combination is diluted with water to the desired concentration. To test for curative activity, young plants are sprayed with a conidia suspension of Fusarium nivale var. majus. The plants remain in an incubation cabin at 15° C. and 100% relative atmospheric humidity for 24 hours and are then sprayed with the active compound preparation at the stated application rate. After the spray coating has dried on, the plants remain in a greenhouse under transparent incubation hoods at a temperature of about 15° C. and a relative atmospheric humidity of about 100%. Evaluation is carried out 11 days after the inoculation. 0% means an efficacy which corresponds to that of the control, whereas an efficacy of 100% means that no infection is observed.

SMILES	Efficacy in % [1]	Efficacy in % (Leptosphaeria nodorum)	Efficacy in % found ([2]; application rate 55 g/ha)	Efficacy in % found ([2]; application rate 140 g/ha)
CC(C)(C)C(O)(CCc1ccc(Cl)cc1)Cn1cncn1 (stereo not drawn) [(III) tebuconazole, tebuconazole]	78%	40%	33%	
OC(Cc1ccccc1Cl)(Cn1nc[nH]c1=S)C1(Cl)CC1 (stereo not drawn) [(II) prothioconazole, prothioconazole]	78%	20%	17%	
CCCN(CC)CC1COC2(CCC(C(C)(C)C)CC2)O1 (stereo not drawn) [(I) spiroxamine, 8-tert-butyl-1,4-dioxaspiro[4.5]decan-2-ylmethyl(ethyl)(propyl)amine]	33%	0%		17%
